A short description of data set [1]: Toxicity in colon 26 tumor-bearing CD2F1 mouse assessed as lethality at 100 mg/kg. Type of data set: organism-based. The conditions noted are these: in vivo, read-out: Activity. Set-up: dose 100 mg/kg.
Data set [2] is described as follows: Toxicity in colon 26 tumor-bearing CD2F1 mouse assessed as lethality at 200 mg/kg. The following applies: in vivo, read-out: Activity. It is filed as organism-based. Set-up: dose 200 mg/kg.

With `Cn1cc(C(N)=O)c(Nc2ccc(I)cc2F)cc1=O`, the mortality in data set [1] was found to be 40%; in data set [2], 100%.

The values above are taken from ChEMBL document CHEMBL1148821, “4-anilino-5-carboxamido-2-pyridone derivatives as noncompetitive inhibitors of mitogen-activated protein kinase kinase” (J Med Chem, 2007).
